Results taken from patent US20250287987A1, “AEROSOLISABLE MATERIAL” (NICOVENTURES TRADING LIMITED, priority 2022, published 2025).

Assay: physchem
From the text: LogP is the partition coefficient of a molecule between aqueous and lipophilic phases, usually considered as octanol and water. As referred to herein, the LogP of specific terpenes can be determined using the “slow-stirring” method, wherein water, 1-octanol and the test substance are equilibrated in a thermostated stirred reactor. Exchange between the phases is accelerated by stirring. The stirring introduces limited turbulence which enhances the exchange between 1-octanol and water without microdroplets being formed. A suitable “slow-stirring” method is: Test No. 123: Partition Coefficient (1-Octanol/Water): Slow-Stirring Method, 30 Jun. 2022, OECD Guidelines for the Testing of Chemicals.

CC(C)=CCCC(C)CCO (stereo not drawn) [Beta-citronellol]
logP (LogP): 3.56

C=C(C)[C@H]1CC=C(C)CC1 [Limonene]
logP (octanol/water): 4.4

C=CC(C)(CCC=C(C)C)OC(C)=O (stereo not shown) [Linalyl acetate]
logP: 3.92

C=C1CC/C=C(\C)CC[C@@H]2[C@@H]1CC2(C)C [beta-caryophyllene]
logP (LogP): > 6.4
